Experiments:
Dynamic Vapour Sorption = type: physicochemical; details: 25° C.; for hygroscopicity: 0-95% RH, two cycles, batches from Method 1 and Method 2 (FIGS. 4 and 5)
Protocol: Analytical Instrument: Surface Measurements Systems Dynamic Vapour Sorption Analyser. About 5 mg of material contained in a quartz holder at a specified temperature was subjected to humidified nitrogen at a flow rate of 200 ml/minute of nitrogen at 25° C. at the following relative humidities (RH): 0, 20, 40, 60, 80, 95, 80, 60, 40, 20, 0% RH in duplicate. The weight of the material at a particular relative humidity was monitored until it was stable according to a weight criteria of 0.002% weight change per minute averaged over 10 minutes. If the weight was still changing then it stayed at a particular relative humidity until the weight was stable (up to a maximum time of 12 hours).

[1] = system: human colorectal (SW620, HCT116, Colo205) and lung (A549, Calu-6) tumour xenografts; test: tumour growth inhibition in human tumour xenografts; type: in vivo; details: panel of human colorectal (SW620, HCT116, Colo205) and lung (A549, Calu-6) tumour xenografts; with statistical significance
[2] = pro-drug conversion in human plasma; type: in vitro ADME

Row | conversion of pro-drug to active moiety AZD1152 HQPA [2] | Compound | hygroscopicity (Dynamic Vapour Sorption) | hygroscopicity (Dynamic Vapour Sorption; listed as maleate co-crystal of AZD1152) | inhibition of tumour growth [1] | level of water (hydration state) with relative humidity (Dynamic Vapour Sorption; 0-95% RH (FIG. 6), dehydrated to tetrahydrated state and higher)
1 | – | CCN(CCCOc1ccc2c(Nc3cc(CC(=O)Nc4cccc(F)c4)[nH]n3)ncnc2c1)CCOP(=O)(O)O.O=C(O)/C=C\C(=O)O [AZD1152 maleate co-crystal, 2-{ethyl[3-({4-[(5-{2-[(3-fluorophenyl)amino]-2-oxoethyl}-1H-pyrazol-3-yl)amino]quinazolin-7-yl}oxy)propyl]amino}ethyl dihydrogen phosphate.maleate] | non-hygroscopic | substantially non-hygroscopic | – | –
2 | rapidly and completely converted | CCN(CCCOc1ccc2c(Nc3cc(CC(=O)Nc4cccc(F)c4)n[nH]3)ncnc2c1)CCOP(=O)(O)O [AZD1152, 2-{ethyl[3-({4-[(5-{2-[(3-fluorophenyl)amino]-2-oxoethyl}-1H-pyrazol-3-yl)amino]quinazolin-7-yl}oxy)propyl]amino}ethyl dihydrogen phosphate] | – | – | inhibit tumour growth | quite variable depending on the relative humidity of storage

— patent US7625910B2, “Co-crystal” (AstraZeneca AB, priority 2006, dated 2009)
